Data as given in ChEMBL document CHEMBL1201862, “PubChem BioAssay data set” (2004).
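Compound exposure: 48 hours, 5 concentrations, 96-well plates. GI50 marks 50% less growth.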 Activity calls are given as the source filed them. Cut-off read from the data, not from the text of the source: active = GI50 up to about 1.1 µM and inactive = higher.

How the values were obtained:
Assay in all cases: DTP human tumour cell line panel, 48 h
[1] = tested on: HOP-62
[2] = tested on: SN12C
[3] = tested on: M14
[4] = tested on: MDA-MB-231
[5] = tested on: COLO 205
[6] = tested on: IGROV-1
[7] = tested on: CAKI-1
[8] = tested on: HL-60
[9] = tested on: CCRF-CEM
[10] = tested on: LOX IMVI
[11] = tested on: Malme-3M
[12] = tested on: RPMI-8226
[13] = tested on: HCT-15
[14] = tested on: MCF7
[15] = tested on: SF-539
[16] = tested on: T47D
[17] = tested on: OVCAR-5
[18] = tested on: HCT-116
[19] = tested on: MDA-N
[20] = tested on: NCI-H522

SMILES	GI50 [1]	GI50 [2]	GI50 [3]	GI50 [4]	GI50 [5]	GI50 [6]	GI50 [7]	GI50 [8]	GI50 [9]	GI50 [10]	GI50 [11]	GI50 [12]	GI50 [13] [µM]	GI50 [14]	GI50 [15]	GI50 [16]	GI50 [17]	GI50 [18]	GI50 [19]	GI50 [20]
O=P(O)(O)CCP(=O)(O)O	> 100 µM (inactive)	> 100 µM (inactive)	> 100 µM (inactive)	> 100 µM (inactive)	> 100 µM (inactive)	> 100 µM (inactive)	> 100 µM (inactive)	61.1 µM (inactive)	> 100 µM (inactive)	> 100 µM (inactive)	> 100 µM (inactive)	> 100 µM (inactive)	> 100	> 100 µM (inactive)	> 100 µM (inactive)	> 100 µM (inactive)	> 100 µM (inactive)	> 100 µM (inactive)	> 100 µM (inactive)	> 100 µM (inactive)
CCCCCCCCCC(=O)CC(=O)c1c(O)cc(O)cc1O	13.6 µM (inactive)	20.6 µM (inactive)	17.1 µM (inactive)	28.6 µM (inactive)	26.6 µM (inactive)	26.5 µM (inactive)	31.1 µM (inactive)	17.9 µM (inactive)	34.3 µM (inactive)	17.4 µM (inactive)	14.4 µM (inactive)	16.1 µM (inactive)	18.2	39.1 µM (inactive)	19.5 µM (inactive)	34.7 µM (inactive)	19.4 µM (inactive)	24.4 µM (inactive)	16.9 µM (inactive)	20.2 µM (inactive)
CCN(CC)CCn1ncc2ccc3c(c(=O)c4cccnc4n3CCN(CC)CC)c21	0.867 µM (active)	0.621 µM (active)	1.41 µM (inactive)	1.67 µM (inactive)	0.493 µM (active)	0.625 µM (active)	3.54 µM (inactive)	1.09 µM (active)	0.348 µM (active)	0.521 µM (active)	1.75 µM (inactive)	0.931 µM (active)	0.743	0.618 µM (active)	0.589 µM (active)	2.28 µM (inactive)	1.09 µM (active)	0.385 µM (active)	0.861 µM (active)	0.845 µM (active)
CSc1nc(=O)c(C#N)c(-c2ccccc2)n1C1OC(COC(C)=O)C(OC(C)=O)C(OC(C)=O)C1OC(C)=O (centres undefined)	> 100 µM (inactive)	> 100 µM (inactive)	> 100 µM (inactive)	> 100 µM (inactive)	> 100 µM (inactive)	> 100 µM (inactive)	> 100 µM (inactive)	> 100 µM (inactive)	99.8 µM (inactive)	98.4 µM (inactive)	69.3 µM (inactive)	> 100 µM (inactive)	> 100	> 100 µM (inactive)	> 100 µM (inactive)	86.3 µM (inactive)	> 100 µM (inactive)	79.4 µM (inactive)	> 100 µM (inactive)	> 100 µM (inactive)
O=C(/C=C/c1ccccc1)Nc1ccccc1SCCCCl	15 µM (inactive)	8.93 µM (inactive)	20.1 µM (inactive)	11.4 µM (inactive)	15.6 µM (inactive)	1.18 µM (inactive)	5.79 µM (inactive)	3.8 µM (inactive)	10 µM (inactive)	8.81 µM (inactive)	10.7 µM (inactive)	27.4 µM (inactive)	13.4	4.4 µM (inactive)	8.57 µM (inactive)	7.52 µM (inactive)	34 µM (inactive)	8.91 µM (inactive)	6.38 µM (inactive)	4.07 µM (inactive)
c1ccc2c(c1)CCc1[nH]c3c(c1-2)-c1ccccc1CC3	15.1 µM (inactive)	> 100 µM (inactive)	35 µM (inactive)	33.2 µM (inactive)	> 100 µM (inactive)	> 100 µM (inactive)	91.6 µM (inactive)	27.9 µM (inactive)	39.4 µM (inactive)	42.6 µM (inactive)	> 100 µM (inactive)	43.1 µM (inactive)	48.1	39.9 µM (inactive)	> 100 µM (inactive)	90.2 µM (inactive)	> 100 µM (inactive)	96.8 µM (inactive)	94 µM (inactive)	96.4 µM (inactive)
CC(=O)c1ccc(Br)cc1NC1=CC(=O)c2ncccc2C1=O	3.47 µM (inactive)	7 µM (inactive)	2.22 µM (inactive)	1.88 µM (inactive)	3.18 µM (inactive)	2.69 µM (inactive)	7.59 µM (inactive)	1.64 µM (inactive)	3.47 µM (inactive)	5.79 µM (inactive)	1.64 µM (inactive)	2.18 µM (inactive)	2.69	1.38 µM (inactive)	2.56 µM (inactive)	3.85 µM (inactive)	13.1 µM (inactive)	1.9 µM (inactive)	1.81 µM (inactive)	3.27 µM (inactive)
O=C1N[C@@H]2c3c(Br)sc(Br)c3C(=O)[C@@H]2O1	22 µM (inactive)	2.93 µM (inactive)	1.97 µM (inactive)	2.41 µM (inactive)	2.56 µM (inactive)	4.84 µM (inactive)	0.877 µM (active)	0.743 µM (active)	1.57 µM (inactive)	1.83 µM (inactive)	2.59 µM (inactive)	5.12 µM (inactive)	1.91	3.98 µM (inactive)	10.3 µM (inactive)	9.18 µM (inactive)	13.7 µM (inactive)		2.44 µM (inactive)	0.703 µM (active)
O=C(Nc1ccn(C2CC(I)C(COC(c3ccccc3)(c3ccccc3)c3ccccc3)O2)c(=O)n1)c1ccccc1 (centres undefined)	14 µM (inactive)	4.36 µM (inactive)	10.8 µM (inactive)	9.57 µM (inactive)	7.59 µM (inactive)	13.3 µM (inactive)	15.6 µM (inactive)	5.83 µM (inactive)	8.89 µM (inactive)	8.18 µM (inactive)	7.78 µM (inactive)	7.26 µM (inactive)	8.73	4.86 µM (inactive)	12.4 µM (inactive)	6.87 µM (inactive)	> 21.5 µM (inactive)	6.35 µM (inactive)	7.91 µM (inactive)	11 µM (inactive)
CN(C)CC1CN/C(=N\C(=O)Nc2ccccc2)O1 (centres undefined)	> 100 µM (inactive)	> 100 µM (inactive)	> 100 µM (inactive)	> 100 µM (inactive)	> 100 µM (inactive)	> 100 µM (inactive)	> 100 µM (inactive)	> 100 µM (inactive)	> 100 µM (inactive)	> 100 µM (inactive)	> 100 µM (inactive)	> 100 µM (inactive)	> 100	> 100 µM (inactive)	> 100 µM (inactive)	> 100 µM (inactive)	> 100 µM (inactive)	> 100 µM (inactive)	> 100 µM (inactive)	> 100 µM (inactive)
Cc1ccc(CS(=O)(=O)C/N=C2\Sc3ccccc3N\C2=C/C(=O)c2ccc(Cl)cc2)cc1	8.22 µM (inactive)	> 10 µM (inactive)	> 10 µM (inactive)	> 10 µM (inactive)	> 10 µM (inactive)	> 10 µM (inactive)	> 10 µM (inactive)	1 µM (active)	1 µM (active)	> 10 µM (inactive)	> 10 µM (inactive)	> 10 µM (inactive)	> 10	0.703 µM (active)	> 10 µM (inactive)	1.71 µM (inactive)	> 10 µM (inactive)	> 10 µM (inactive)	> 10 µM (inactive)	> 10 µM (inactive)
C=CCOc1ccc(C2C(C(=O)OCC)C(=O)CC(C)(O)C2C(=O)OCC)cc1OC (centres undefined)	> 100 µM (inactive)	> 100 µM (inactive)	> 100 µM (inactive)	> 100 µM (inactive)	> 100 µM (inactive)	> 100 µM (inactive)	> 100 µM (inactive)	> 100 µM (inactive)	> 100 µM (inactive)	> 100 µM (inactive)	> 100 µM (inactive)	> 100 µM (inactive)	> 100	> 100 µM (inactive)	> 100 µM (inactive)	> 100 µM (inactive)	> 100 µM (inactive)	> 100 µM (inactive)	> 100 µM (inactive)	> 100 µM (inactive)
CCOC(=O)Oc1cc2c(c(OC)c1OC)-c1ccc(OC)c(=O)cc1C(NC(C)=O)CC2 (centres undefined)	0.0509 µM (active)	0.034 µM (active)	0.0218 µM (active)	0.0281 µM (active)	0.0185 µM (active)	0.0208 µM (active)	0.239 µM (active)	< 0.0118 µM (active)	< 0.0122 µM (active)	0.0153 µM (active)	< 0.015 µM (active)	0.0141 µM (active)	0.252	< 0.01 µM (active)	0.0138 µM (active)	> 100 µM (inactive)	2.26 µM (inactive)	0.0149 µM (active)	< 0.01 µM (active)	0.014 µM (active)
CCN(CC)CCNc1ccc2nnn3c4ccc([N+](=O)[O-])cc4c(=O)c1c23	2.28 µM (inactive)	7.05 µM (inactive)	11.8 µM (inactive)	3.94 µM (inactive)	4.85 µM (inactive)	5.38 µM (inactive)	4.14 µM (inactive)	6.52 µM (inactive)	4.91 µM (inactive)	4.58 µM (inactive)	9.12 µM (inactive)	6.15 µM (inactive)	6.93	3.67 µM (inactive)	3.35 µM (inactive)	> 100 µM (inactive)	13.2 µM (inactive)	3.55 µM (inactive)	71.8 µM (inactive)	8.15 µM (inactive)
